# Data published in a melting point compilation (Tetko et al.; mined from patent text by program, amines drawn as free bases though some values may be those of a salt).
row,Compound,melting point [°C]
1,Cc1cccc(N)c1CNc1cccn2c(C=O)c(C)nc12,230 to 234
2,CC(=O)OC(c1ccc(Cl)c2nc3n(c12)CCCN3c1ccc(Cl)cc1Cl)C1CC1 (configuration not stated),208 to 210
3,O=C(O)Cc1cccc(C(=O)c2cc3cc(C(=O)O)sc3s2)c1,283
4,CC(C)(C)c1cccc(CNC(c2ccccc2)C(NCc2cccc(C(C)(C)C)c2O)c2ccccc2)c1O (configuration not stated),143 to 144
5,CCC(=O)Nc1ccc(OC)c(=O)cc1,116 to 118
6,Cc1ccc(C(Cl)=NOS(C)(=O)=O)cc1,100 to 102
7,CCOP(=O)(OCC)c1cc2cc(S(=O)(=O)Cl)c(Cl)cc2[nH]c1=O,190 to 200
8,Cc1ccccc1-c1cc2cc(O)c(Cl)c(Cl)c2s1,106 to 107
9,C=CCN1C2CCC1C1CCC2N1C(c1ccc(C(=O)N2CCCCC2)cc1)c1cccc(OC)c1 (configuration not stated),134 to 136
10,Cc1nc(C)nc(-c2cccc(-c3ccccc3C)n2)n1,86.8
11,O=C(Nc1cc2ncc(CN3CCCC3)cc2cc1F)c1ccc(-c2ccc(F)cc2)cc1,198 to 200
12,ClCCN1c2ccc(Cl)cc2C(c2ccsc2)=NCC1CCl (configuration not stated),115 to 116
13,NC(=O)CCc1cnoc1-c1ccccc1,151 to 152
14,COc1ccc(C(=O)C2=C(O)C(=O)N(c3nnc(C)s3)C2c2ccc(OC(F)(F)F)cc2)cc1 (configuration not stated),245 to 247
15,COc1ccc(NC(=O)c2ccc(-c3ccc(-c4noc(C)n4)cc3C)cc2)cc1C=CCN(C)C,220 to 221
16,CCc1cccc(C)c1CNc1cc(C(=O)N(C)C)nc2c(C)c(C)[nH]c12,260 to 262
17,CN(c1cccc2cc(C3=NCC(CC(N)=O)S3)[nH]c12)S(=O)(=O)c1nccs1 (configuration not stated),216 to 218
18,C=CCOc1nccnc1Cl,149 to 150
19,CN(C)N=Nc1cc([N+](=O)[O-])sc1C(=O)O,184 to 186
20,CCCc1c(OCCCC#CC(=O)NCCCCc2cccnc2)ccc(C(C)=O)c1O,84 to 86
21,N#C/C=C/C1CN(C(c2ccccc2)c2ccccc2)C1,108 to 110
22,C[C@@H]1Cc2cc(N3C[C@H](C(N)=O)OC3=O)ccc2N1C=O,228 to 230
23,COC1(c2cc(F)cc(OCc3ccc4c(c3)C(=O)N(C)S4(=O)=O)c2)CCOCC1,155 to 156
24,CSc1ccc(C(=O)c2c(C)cc3n2CCC3C(=O)OC(C)c2ccccc2)n1C (configuration not stated),122 to 123

row,Compound,melting point [°C]
1,O=C(Nc1ccc(F)cc1)NC1C(=O)N(CC(=O)N2CCCC2)c2ccccc2N(C2CCCCC2)C1=O (configuration not stated),181 to 183
2,CCCc1nnc2c(=O)n(C)c3ccc(C(F)(F)F)cc3n12,257 to 258
3,CCCCCCCCCCCCCCCCNc1ccc(C(=O)NS(=O)(=O)c2ccccc2)cc1,136 to 138
4,C[Si](C)(C)C#Cc1ccc2c(c1)C(c1ccccc1F)=NCc1c(C(=O)OCC(F)(F)F)ncn1-2,220 to 221
5,Cn1c(=O)c(-c2c(Cl)cccc2Cl)cc2cnc(NCCc3ccccn3)nc21,173 to 174
6,CCCCCCCCC1C=CC(/C=C/c2ccc(C(=O)O)o2)=C2N=C3C(=C21)CC(C)(C)CC3(C)C (configuration not stated),156 to 158
7,CN(C)CC1CCc2[nH]c3c(c2C1=O)CCC3 (configuration not stated),164 to 165
8,COC(=O)C1CN(Cc2cccnc2)C(=O)C(=C2SC=CS2)C1=O (configuration not stated),111 to 114
9,CCN(c1nc(C)cc(C)n1)c1ccc(C(C)C)cc1SC,64 to 66
10,O=C1C(c2c[nH]c3ccccc23)=C(c2c[nH]c3ccccc23)C(=O)N1c1ccccc1,> 290
11,Cc1ccc(C2CCN(Cc3ccc(COc4cccc5c4CN(C4CCC(=O)NC4=O)C5=O)cc3)CC2)cc1 (configuration not stated),208 to 210
12,CC(=O)OCc1nc2cc(Cl)c(CBr)cc2c(=O)[nH]1,190 to 195
13,COC(=O)c1nc(Br)cc(N)c1Cl,194 to 195
14,CCOC(=O)CC(c1ccccc1)C(C#N)c1ccccc1 (configuration not stated),60.5 to 63
15,CC(=O)c1ccc2c(c1)C(=O)C1(CCOC1=O)S2 (configuration not stated),139 to 140
16,CSCC(=O)[C@H](Cc1ccccc1)NC(=O)[C@H](CC(C)C)NC(C)=O,118 to 120
17,COc1ccc(/C(C)=C\c2ccc(C(=O)O)cc2)cc1C(C)(C)C,182 to 184
18,CCCCCCCCCCCCCCCCCCOc1cc(OCCC[PH](=O)OCC)cc(N(CC(=O)O)CC(=O)O)c1 (configuration not stated),105 to 108
19,CNc1nc(O)cc(O)n1,290
20,CCOCc1c2c(n(Cc3ccccc3)c1-c1ccccc1)C(C)CN(Cc1ccccc1)C2 (configuration not stated),96 to 98
21,CCOc1cc(C(CC(=O)OC)N2C(=O)c3ccccc3C2=O)ccc1OC (configuration not stated),86 to 87
22,O=CN1CCC(c2ccccc2Cc2ccccc2)C1 (configuration not stated),70 to 71
23,CCCCc1cc(C(O)=S)cc(N)c1C(=O)c1ccccc1,144 to 145
24,CC(=O)OC1(C(N)=O)CCCc2cc(C)cnc21 (configuration not stated),205

row,Compound,melting point [°C]
1,CC=C1CCC(C(=O)OC)C(C(=O)OC)C1 (configuration not stated),162 to 163
2,COc1ccc(-c2c(Cl)ncnc2NS(=O)(=O)c2ccc(C(C)C)cc2)cc1,181 to 182
3,CCN1CCN(C2=Nc3cc(Cl)ccc3Oc3ccccc32)CC1,100 to 101
4,COC1OC(=O)C(OC)(OC)C1Cl (configuration not stated),90
5,CCCCCCCCCCCCCCCCOCC(O)COC(c1ccccc1)(c1ccccc1)c1ccccc1 (configuration not stated),49
6,O=C(OCC1CCCCCCCCCC1)n1c(-c2cscn2)nc2ccccc21,86 to 87
7,CCC(=O)c1ccc(C(=O)CC)cc1,98 to 101
8,N=c1sc2cc(OC(F)(F)F)ccc2n1CCSCc1ccccn1,125
9,NNc1ncc(-c2cccc(C(F)(F)F)c2)nn1,229 to 232
10,O=c1c2ccccc2sc2cc(F)ccc12,168
11,O=C1NC(=O)C(Cc2ccc(OCCc3c[nH]c4ccccc34)cc2)S1 (configuration not stated),42.6 to 44.5
12,CCOc1ccc(CNC(=O)n2cc(F)c(=O)[nH]c2=O)cc1OC,153
13,C=C(OCC)c1nc(-c2ccco2)c2ncn(Cc3ccc(OC)cc3)c2n1,144 to 145
14,NC(=O)c1c(Cl)c(-c2ccccc2)n2c1CN(S(=O)(=O)c1ccccc1F)CC2,239 to 240
15,Nc1nc2c(c(=O)[nH]1)CCCC2,> 300
16,COc1ccc2cc(CN(C)C(=O)c3oc4ccccc4c3C)ccc2c1Br,138 to 140
17,CC1(C)OC(C=Cc2ccccn2)=CC1=O,87.5 to 89
18,COC(=O)c1cc(NC(C)=O)c(F)c(-c2ccc(Cl)c(OC)c2F)n1,189 to 191
19,CC(=O)N=C(CCSCc1csc(NC(=N)N)n1)NC(C)=O,180 to 181
20,COC(=O)C(C)(C)OCc1cc2nc(Cl)ccc2n1S(=O)(=O)c1ccc2c(c1)OCO2,131
21,CCCCOCCOc1ccc(-c2cnc(N3CCC(C)C3)c(/C=C(\C)C(=O)O)c2)cc1 (configuration not stated),106 to 108
22,O=C(N[C@@H]1CCC[C@H]1O)C(O)=CC(=O)c1cc(Cc2ccc(F)cc2)cn(Cc2ccccc2F)c1=O,67 to 69
23,COc1ccc2c(c1)CCC(=COC(=O)c1ccccc1)C2=O,128 to 130
24,O=Cc1cc(Br)ccc1OCCc1ccccc1,79 to 80
